# Test results from US20130244999A1, “Substituted Heterocyclic Compounds” (Incyte Corporation, priority 2008, published 2013).
# pIC50: −log10 of the molar value.
# Biological target: T1, histamine H4 receptor (Homo sapiens, UniProt Q9H3N8)
# T1 construct: expressed in transfected cells; host or cells: HEK293SFM cells (membrane preparation)
# Assay: Inhibition of histamine H4 receptor (Table A1; H4 membrane binding assay)
# Conditions: for pIC50: histamine H4 receptor, "> a" = exceeds experiment limit
# Procedure: Recombinant HEK293SFM cells expressing human H1, H2, H3, H4 or mouse H4 were harvested (Packard Filtermate Harvester) in ice-cold Tris-HCl, (50 mM, pH 7.5, Sigma) with protease inhibitors (Roche) and homogenized with a Polytron homogenizer. The homogenate was centrifuged for 5 minutes at 1000 g to remove nuclei and unbroken cells. The supernatant was centrifuged at 50000 g for 30 minutes, and the resulting pellet was re-suspended in ice-cold Tris-HCl (50 mM, pH 7.5). […] Nonspecific binding was determined by inclusion of 1000× unlabeled ligands. The bound radioactivity was separated by filtration through polyethyleneimine-treated GF/B filters (Perkin Elmer). The filters were washed eight times with ice-cold Tris-HCl (50 mM, pH 7.5), and radioactivity retained on the filters was measured by liquid scintillation counting. The binding data were evaluated with Prism. […]
SMILES,pIC50,inhibition at 1 µM [%]
"CN1CCN(c2cc(N3CCc4ccc(-c5cnc(Cl)c(F)c5)cc4C3)nc(N)n2)CC1 [Example 6, 4-[7-(6-Chloro-5-fluoropyridin-3-yl)-3,4-dihydroisoquinolin-2(1H)-yl]-6-(4-methylpiperazin-1-yl)pyrimidin-2-amine]",7.21,
"CN1CCN(c2cc(-c3ccc4c(c3)CN(c3cc(N5CCN(C)CC5)nc(N)n3)CC4)ccn2)CC1 [Example 5, 4-(4-Methylpiperazin-1-yl)-6-[7-[2-(4-methylpiperazin-1-yl)pyridin-4-yl]-3,4-dihydroisoquinolin-2(1H)-yl]pyrimidin-2-amine]",6.89,
"CNC(=O)c1ccc(-c2ccc3c(c2)CN(c2cc(N4CCN(C)CC4)nc(N)n2)C(C)C3)cn1 (single isomer, unassigned) [Example 49B, 5-{2-[2-amino-6-(4-methylpiperazin-1-yl)pyrimidin-4-yl]-3-methyl-1,2,3,4-tetrahydroisoquinolin-7-yl}-N-methylpyridine-2-carboxamide]",7.42,
"CN1CCN(c2cc(N3CCc4ccc(Oc5ccccc5Cl)cc4C3)nc(N)n2)CC1 [Example 17, 4-[7-(2-Chlorophenoxy)-3,4-dihydroisoquinolin-2(1H)-yl]-6-(4-methylpiperazin-1-yl)pyrimidin-2-amine]",6.55,
"CC1Cc2ccc(-c3ccc(C(=O)N4CC[C@@H](O)C4)nc3)cc2CN1c1cc(N2CCN(C)CC2)nc(N)n1 (single isomer, unassigned) [Example 56A]",7.07,
"CC1Cc2ccc(-c3ccc(C(=O)N4CC(C#N)C4)nc3)cc2CN1c1cc(N2CCN(C)CC2)nc(N)n1 (single isomer, unassigned) [Example 54A, 1-[(5-{2-[2-amino-6-(4-methylpiperazin-1-yl)pyrimidin-4-yl]-3-methyl-1,2,3,4-tetrahydroisoquinolin-7-yl}pyridin-2-yl)carbonyl]azetidine-3-carbonitrile]",7.00,
"CN1CCN(c2cc(N3CCc4ccc(C(=O)N5Cc6ccccc6C5)cc4C3)nc(N)n2)CC1 [Example 26, 4-[7-(1,3-Dihydro-2H-isoindol-2-ylcarbonyl)-3,4-dihydroisoquinolin-2(1H)-yl]-6-(4-methylpiperazin-1-yl)pyrimidin-2-amine]",6.61,
"CC1Cc2ccc(-c3ccc(C(=O)N4CC(O)C4)nc3)cc2CN1c1cc(N2CCN(C)CC2)nc(N)n1 (single isomer, unassigned) [Example 60, 1-[(5-{2-[2-Amino-6-(4-methylpiperazin-1-yl)pyrimidin-4-yl]-3-methyl-1,2,3,4-tetrahydroisoquinolin-7-yl}pyridin-2-yl)carbonyl]azetidin-3-ol]",6.89,
"CN1CCN(c2cc(N3CCc4ccc(N5CCC(O)(c6ccccc6)CC5)cc4C3)nc(N)n2)CC1 [Example 37, 1-{2-[2-Amino-6-(4-methylpiperazin-1-yl)pyrimidin-4-yl]-1,2,3,4-tetrahydroisoquinolin-7-yl}-4-phenylpiperidin-4-ol]",6.24,

# Results, then the compound that gave them:
pIC50,inhibition at 1 µM [%],SMILES
7.30,,"CC1Cc2ccc(-c3ccnc(C(=O)N4CCC(N(C)C)C4)c3)cc2CN1c1cc(N2CCN(C)CC2)nc(N)n1 (single isomer, unassigned) [Example 67B, 4-[7-(2-{[3-(dimethylamino)pyrrolidin-1-yl]carbonyl}pyridin-4-yl)-3-methyl-3,4-dihydroisoquinolin-2(1H)-yl]-6-(4-methylpiperazin-1-yl)pyrimidin-2-amine]"
7.62,,"CC1Cc2ccc(-c3cnn(C(C)CC#N)c3)cc2CN1c1cc(N2CCN(C)CC2)nc(N)n1 (single isomer, unassigned) [Example 103, 3-(4-{2-[2-Amino-6-(4-methylpiperazin-1-yl)pyrimidin-4-yl]-3-methyl-1,2,3,4-tetrahydroisoquinolin-7-yl}-1H-pyrazol-1-yl)butanenitrile]"
6.91,,"CC1Cc2ccc(-c3cnn(C)c3)cc2CN1c1cc(N2CC3CC2CN3)nc(N)n1 (stereo not drawn) [Example 123, 4-(2,5-Diazabicyclo[2.1.1]hept-2-yl)-6-[3-methyl-7-(1-methyl-1H-pyrazol-4-yl)-3,4-dihydroisoquinolin-2(1H)-yl]pyrimidin-2-amine]"
7.59,,"CNC(=O)c1cc(-c2ccc3c(c2)CN(c2cc(N4CCN(C)CC4)nc(N)n2)C(C)C3)cn1C (single isomer, unassigned) [Example 87A, 4-{2-[2-Amino-6-(4-methylpiperazin-1-yl)pyrimidin-4-yl]-3-methyl-1,2,3,4-tetrahydroisoquinolin-7-yl}-N,1-dimethyl-1H-pyrrole-2-carboxamide]"
7.60,,"CCNC(=O)c1cc(-c2ccc3c(c2)CN(c2cc(N4CCN(C)CC4)nc(N)n2)C(C)C3)cn1C (single isomer, unassigned) [Example 88A, 4-{2-[2-Amino-6-(4-methylpiperazin-1-yl)pyrimidin-4-yl]-3-methyl-1,2,3,4-tetrahydroisoquinolin-7-yl}-N-ethyl-1-methyl-1H-pyrrole-2-carboxamide]"
7.29,,"CC1Cc2ccc(-c3cnn(C)c3)cc2CN1c1cc(N2CCCNCC2)nc(N)n1 (stereo not drawn) [Example 122, 4-(1,4-Diazepan-1-yl)-6-[3-methyl-7-(1-methyl-1H-pyrazol-4-yl)-3,4-dihydroisoquinolin-2(1H)-yl]pyrimidin-2-amine]"
,67,"CC1Cc2ccc(-c3cc(C(=O)N(C)C)n(C)c3)cc2CN1c1cc(N2CCN(C)CC2)nc(N)n1 (single isomer, unassigned) [Example 89B, 4-{2-[2-Amino-6-(4-methylpiperazin-1-yl)pyrimidin-4-yl]-3-methyl-1,2,3,4-tetrahydroisoquinolin-7-yl}-N,1N,1-trimethyl-1H-pyrrole-2-carboxamide]"
7.62,,"CC1Cc2ccc(C3CCN(C(=O)N(C)C)CC3)cc2CN1c1cc(N2CCN(C)CC2)nc(N)n1 (stereo not drawn) [Example 144, 4-{2-[2-Amino-6-(4-methylpiperazin-1-yl)pyrimidin-4-yl]-3-methyl-1,2,3,4-tetrahydroisoquinolin-7-yl}-N,N-dimethylpiperidine-1-carboxamide]"
6.97,,"CNC(=O)Cn1cc(-c2ccc3c(c2)CN(c2cc(N4CCN(C)CC4)nc(N)n2)C(C)C3)cn1 (stereo not drawn) [Example 79, 2-(4-{2-[2-Amino-6-(4-methylpiperazin-1-yl)pyrimidin-4-yl]-3-methyl-1,2,3,4-tetrahydroisoquinolin-7-yl}-1H-pyrazol-1-yl)-N-methylacetamide]"
7.19,,"CC1Cc2ccc(-c3ccnc(C(=O)N(C)C)c3)cc2CN1c1cc(N2CCN(C)CC2)nc(N)n1 (single isomer, unassigned) [Example 61B, 4-{2-[2-amino-6-(4-methylpiperazin-1-yl)pyrimidin-4-yl]-3-methyl-1,2,3,4-tetrahydroisoquinolin-7-yl}-N,N-dimethylpyridine-2-carboxamide]"
7.23,,"CNC(=O)c1cnc(-c2ccc3c(c2)CN(c2cc(N4CCN(C)CC4)nc(N)n2)C(C)C3)s1 (stereo not drawn) [Example 133, 2-{2-[2-amino-6-(4-methylpiperazin-1-yl)pyrimidin-4-yl]-3-methyl-1,2,3,4-tetrahydroisoquinolin-7-yl}-N-methyl-1,3-thiazole-5-carboxamide]"
8.06,,"CC1Cc2ccc(-c3ccn(Cc4cccnc4)n3)cc2CN1c1cc(N2CCN(C)CC2)nc(N)n1 (single isomer, unassigned) [Example 156, 4-(4-Methylpiperazin-1-yl)-6-[3-methyl-7-[1-(pyridin-3-ylmethyl)-1H-pyrazol-3-yl]-3,4-dihydroisoquinolin-2(1H)-yl]pyrimidin-2-amine]"
